# Results published in ChEMBL document CHEMBL5143529, “Design, synthesis, and biological evaluation of novel (4-(1,2,4-oxadiazol-5-yl)phenyl)-2-aminoacetamide derivatives as multifunctional agents for the treatment of Alzheimer's disease” (Eur J Med Chem, 2022).
# The source made the active and inactive calls. The rule behind the calls is not given here.
# Legend:
# Acetylcholinesterase = Acetylcholinesterase (Electrophorus electricus, UniProt O42275); test: Inhibition of electric eel AChE using acetylthiocholine iodide as substrate preincubated for 20 mins followed by substrate addition and measured after 5 mins by DTNB-reagent based Ellman's method
# Acetylcholinesterase, sequence (O42275 whole entry): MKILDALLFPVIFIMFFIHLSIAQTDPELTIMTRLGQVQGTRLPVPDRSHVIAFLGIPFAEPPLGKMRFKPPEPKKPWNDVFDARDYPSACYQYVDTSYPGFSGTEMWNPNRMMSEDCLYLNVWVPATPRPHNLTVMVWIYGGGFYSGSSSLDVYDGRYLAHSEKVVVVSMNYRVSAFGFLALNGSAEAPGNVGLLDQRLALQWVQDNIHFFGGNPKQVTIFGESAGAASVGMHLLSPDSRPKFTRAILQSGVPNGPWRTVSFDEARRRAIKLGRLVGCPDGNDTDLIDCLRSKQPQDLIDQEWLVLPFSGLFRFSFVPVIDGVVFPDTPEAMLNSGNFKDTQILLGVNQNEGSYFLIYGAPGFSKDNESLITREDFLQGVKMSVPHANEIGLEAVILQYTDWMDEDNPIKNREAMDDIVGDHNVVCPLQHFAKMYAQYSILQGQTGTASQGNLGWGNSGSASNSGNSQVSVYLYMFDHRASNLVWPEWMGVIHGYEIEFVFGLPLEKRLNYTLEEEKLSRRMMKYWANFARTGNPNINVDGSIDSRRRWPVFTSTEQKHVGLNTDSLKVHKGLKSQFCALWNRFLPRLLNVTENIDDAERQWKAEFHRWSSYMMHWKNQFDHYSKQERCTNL
# [1] = target: Cholinesterase (Equus caballus) (UniProt P81908); test: Mixed type inhibition of equine serum BuChE assessed as decrease in Vmax with increase in Km at 0.5 to 2 uM using varying level of butyrylthiocholine iodide as substrate by Lineweaver-Burk plot double reciprocal analysis; conditions: dose 0.5-2 µM
# Cholinesterase (Equus caballus), sequence (P81908 whole entry): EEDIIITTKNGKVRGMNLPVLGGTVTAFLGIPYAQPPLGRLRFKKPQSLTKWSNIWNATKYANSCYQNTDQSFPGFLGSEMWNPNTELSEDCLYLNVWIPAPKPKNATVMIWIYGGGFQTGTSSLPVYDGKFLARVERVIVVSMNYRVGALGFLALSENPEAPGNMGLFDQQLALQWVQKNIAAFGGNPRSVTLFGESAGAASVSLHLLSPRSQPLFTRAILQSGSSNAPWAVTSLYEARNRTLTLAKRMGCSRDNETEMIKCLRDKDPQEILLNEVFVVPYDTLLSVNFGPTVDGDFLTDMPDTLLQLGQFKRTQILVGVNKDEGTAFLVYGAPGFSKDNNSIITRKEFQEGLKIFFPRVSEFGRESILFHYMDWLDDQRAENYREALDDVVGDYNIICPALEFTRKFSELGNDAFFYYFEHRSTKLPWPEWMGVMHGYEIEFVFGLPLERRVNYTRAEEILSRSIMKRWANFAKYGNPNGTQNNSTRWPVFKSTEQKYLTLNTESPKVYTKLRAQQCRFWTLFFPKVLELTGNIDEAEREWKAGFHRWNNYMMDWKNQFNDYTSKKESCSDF
# Cholinesterase [2] = target: T1, Cholinesterase (Equus caballus, UniProt P81908); test: Mixed type inhibition of equine serum BuChE assessed as inhibition constant using varying level of butyrylthiocholine iodide as substrate by Lineweaver-Burk plot double reciprocal analysis
# T1 sequence (P81908 whole entry): as above
# PC-12 [3] = test: Neuroprotective activity against H202-induced cell death in rat PC-12 cells assessed as cell viability at 5 uM pretreated for 3 hrs followed by H2O2 stimulation and measured after 24 hrs by MTT assay relative to control; format: functional; conditions: time 27 hrs, read-out: Activity
# PC-12 [4] = test: Neuroprotective activity against H202-induced cell death in rat PC-12 cells assessed as cell viability at 20 uM pretreated for 3 hrs followed by H2O2 stimulation and measured after 24 hrs by MTT assay relative to control; format: functional; conditions: time 27 hrs, read-out: Activity
# [5] = Cytotoxicity against rat PC-12 cells assessed as cell viability at 25 uM incubated for 24 hrs by MTT assay relative to control; format: toxicity, cell-based; conditions: read-out: Activity
# [6] = Cytotoxicity against rat PC-12 cells assessed as cell viability at 50 uM incubated for 24 hrs by MTT assay relative to control; format: toxicity, cell-based; conditions: read-out: Activity
# [7] = target: Amyloid-beta precursor protein (Homo sapiens) (UniProt P05067); test: Inhibition of amyloid beta (1 to 42 ) (unknown origin) self aggregation at 100 uM measured after 48 hrs by transmission electron microscopic analysis
# Amyloid-beta precursor protein (Homo sapiens), sequence (P05067 whole entry): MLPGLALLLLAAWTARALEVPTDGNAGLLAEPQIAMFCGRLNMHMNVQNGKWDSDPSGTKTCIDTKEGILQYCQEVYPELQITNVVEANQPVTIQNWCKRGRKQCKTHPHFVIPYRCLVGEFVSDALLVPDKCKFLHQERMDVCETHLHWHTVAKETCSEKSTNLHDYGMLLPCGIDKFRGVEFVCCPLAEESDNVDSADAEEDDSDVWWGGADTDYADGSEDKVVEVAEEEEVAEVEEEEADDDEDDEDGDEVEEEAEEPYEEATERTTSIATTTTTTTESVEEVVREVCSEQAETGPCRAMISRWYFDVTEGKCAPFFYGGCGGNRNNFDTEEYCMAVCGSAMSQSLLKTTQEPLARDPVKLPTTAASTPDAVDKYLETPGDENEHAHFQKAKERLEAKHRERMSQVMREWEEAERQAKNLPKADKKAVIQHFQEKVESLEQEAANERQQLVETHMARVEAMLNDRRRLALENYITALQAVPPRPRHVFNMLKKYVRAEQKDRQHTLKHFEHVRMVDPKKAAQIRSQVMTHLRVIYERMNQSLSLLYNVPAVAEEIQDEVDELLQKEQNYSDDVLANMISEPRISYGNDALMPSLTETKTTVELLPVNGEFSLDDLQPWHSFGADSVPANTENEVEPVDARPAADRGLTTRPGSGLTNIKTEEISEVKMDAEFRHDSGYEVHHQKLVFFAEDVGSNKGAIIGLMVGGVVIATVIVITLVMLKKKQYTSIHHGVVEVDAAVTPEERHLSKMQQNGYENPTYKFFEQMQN
# [8] = Inhibition of LPS-induced IL-1beta secretion in mouse BV-2 cells preincubated for 1 hr followed by LPS stimulation and measured after 24 hrs by ELISA; format: functional, cell-based
# [9] = Inhibition of LPS-induced TNF-alpha secretion in mouse BV-2 cells preincubated for 1 hr followed by LPS stimulation and measured after 24 hrs by ELISA; format: functional, cell-based
# BV-2 [10] = test: Downregulation of COX-2 protein expression in LPS-stimulated mouse BV-2 cells preincubated for 1 hr followed by LPS stimulation and measured after 24 hrs by Western blot analysis; format: functional, cell-based; conditions: dose 1-10 µM, time 25.0 hrs, DDE = dose-dependent effect
# BV-2 [11] = test: Downregulation of iNOS protein expression in LPS-stimulated mouse BV-2 cells preincubated for 1 hr followed by LPS stimulation and measured after 24 hrs by Western blot analysis; format: functional, cell-based; conditions: dose 1-10 µM, time 25.0 hrs, DDE = dose-dependent effect
# [12] = target: T2, Inhibitor of nuclear factor kappa-B kinase subunit beta (Mus musculus) (UniProt O88351); test: Inhibition of IkappaB activation in LPS-stimulated mouse BV-2 cells pretreated for 1 hr followed by LPS stimulation and measured after 24 hrs by Western blot analysis; format: cell-based; conditions: dose 1-10 µM, time 25.0 hrs, DDE = dose-dependent effect
# T2 sequence (whole entry): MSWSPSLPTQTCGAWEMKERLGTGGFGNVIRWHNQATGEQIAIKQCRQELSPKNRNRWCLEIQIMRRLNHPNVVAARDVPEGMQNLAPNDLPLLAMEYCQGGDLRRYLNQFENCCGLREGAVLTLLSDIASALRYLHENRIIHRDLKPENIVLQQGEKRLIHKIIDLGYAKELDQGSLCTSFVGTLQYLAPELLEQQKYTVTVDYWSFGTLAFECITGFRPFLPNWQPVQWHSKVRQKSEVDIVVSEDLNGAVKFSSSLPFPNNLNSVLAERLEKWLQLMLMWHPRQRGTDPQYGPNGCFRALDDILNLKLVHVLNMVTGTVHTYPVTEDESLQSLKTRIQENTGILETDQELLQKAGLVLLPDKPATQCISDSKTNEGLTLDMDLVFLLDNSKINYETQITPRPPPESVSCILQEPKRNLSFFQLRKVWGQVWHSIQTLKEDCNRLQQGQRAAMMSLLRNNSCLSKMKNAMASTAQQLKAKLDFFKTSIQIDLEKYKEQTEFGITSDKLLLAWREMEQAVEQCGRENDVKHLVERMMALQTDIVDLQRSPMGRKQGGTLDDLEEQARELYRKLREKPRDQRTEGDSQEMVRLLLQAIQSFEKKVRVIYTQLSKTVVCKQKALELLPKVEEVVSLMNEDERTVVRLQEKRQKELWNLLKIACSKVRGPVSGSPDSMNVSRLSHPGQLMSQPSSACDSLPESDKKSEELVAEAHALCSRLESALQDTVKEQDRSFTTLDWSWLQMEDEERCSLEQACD
# [13] = target: T2, Inhibitor of nuclear factor kappa-B kinase subunit beta (Mus musculus); test: Inhibition of IkappaB phosphorylation in LPS-stimulated mouse BV-2 cells pretreated for 1 hr followed by LPS stimulation and measured after 24 hrs by Western blot analysis; format: cell-based; conditions: dose 1-10 µM, time 25.0 hrs, DDE = dose-dependent effect
# [14] = target: Transcription factor p65 (Mus musculus) (UniProt Q04207); test: Inhibition of p65 phosphorylation in LPS-stimulated mouse BV-2 cells at 1 to 10 uM pretreated for 1 hr followed by LPS stimulation and measured after 24 hrs by Western blot analysis; format: cell-based; conditions: dose 1-10 µM, time 25.0 hrs
# Transcription factor p65 (Mus musculus), sequence (Q04207 whole entry): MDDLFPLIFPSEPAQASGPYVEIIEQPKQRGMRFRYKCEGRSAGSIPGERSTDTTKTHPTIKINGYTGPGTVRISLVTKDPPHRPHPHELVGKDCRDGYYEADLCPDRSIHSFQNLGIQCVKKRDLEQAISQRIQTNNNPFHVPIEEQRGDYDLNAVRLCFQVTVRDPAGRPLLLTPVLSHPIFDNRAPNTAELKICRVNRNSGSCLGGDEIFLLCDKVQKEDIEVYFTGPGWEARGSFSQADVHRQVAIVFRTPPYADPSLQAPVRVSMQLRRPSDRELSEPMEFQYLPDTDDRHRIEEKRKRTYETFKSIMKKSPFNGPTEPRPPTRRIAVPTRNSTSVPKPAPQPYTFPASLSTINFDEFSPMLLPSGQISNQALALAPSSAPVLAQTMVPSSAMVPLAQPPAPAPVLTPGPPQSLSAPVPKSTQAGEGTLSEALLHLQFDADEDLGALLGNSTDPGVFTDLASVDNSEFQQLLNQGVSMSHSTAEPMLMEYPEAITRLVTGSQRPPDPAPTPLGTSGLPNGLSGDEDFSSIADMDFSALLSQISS
# BV-2 [15] = test: Inhibition of NF-kappaB in LPS-stimulated mouse BV-2 cells assessed as reduction in translocation of p65 NF-kappaB from cytoplasm to nucleus at 1 to 10 uM pretreated for 1 hr followed by LPS stimulation and measured after 24 hrs; format: cell-based; conditions: dose 1-10 µM, time 25.0 hrs
# PC-12 [16] = test: Inhibition of H2O2-induced ROS production in rat PC-12 cells assessed as reduction in ROS accumulation at 1 to 50 uM pretreated for 6 hrs followed by H2O2 stimulation and measured after 18 hrs by DCFH-DA staining based fluorescence assay; format: functional, cell-based; conditions: dose 1-50 µM, time 24.0 hrs
# SH-SY5Y = test: Inhibition of H2O2-induced ROS production in human SH-SY5Y cells assessed as reduction in ROS accumulation at 1 to 50 uM pretreated for 6 hrs followed by H2O2 stimulation and measured after 18 hrs by DCFH-DA staining based fluorescence assay; format: functional, cell-based; conditions: dose 1-50 µM, time 24.0 hrs
# [17] = Antioxidant activity assessed as DPPH radical scavenging activity at 10 uM incubated for 2 hrs under dark condition by microplate reader method relative to control; format: functional
# [18] = Antioxidant activity assessed as DPPH radical scavenging activity at 1000 uM incubated for 2 hrs under dark condition by microplate reader method relative to control; format: functional
# [19] = Metal chelating activity assessed as Cu2+-compound complex formation by measuring reduction in maximum absorbance intensity at 20 uM incubated for 1 hr by UV-visible spectrophotometry
# [20] = Toxicity in C57BL/6 mouse assessed as median lethal dose administered intragastrically for 7 days; conditions: in vivo, po, time 7 day
# [21] = Toxicity in C57BL/6 mouse assessed as abnormal fluctuations in body weight at 10 to 30 mg/kg, IG measured after 7 days; format: organism-based; conditions: in vivo, po, 168 h, dose 10-30 mg/kg, time 7 day
# [22] = Toxicity in C57BL/6 mouse model of scopolamine-induced Alzheimer's disease assessed as changes in swimming speed at 10 to 30 mg/kg, IG measured after 7 days; format: organism-based; conditions: in vivo, po, 168 h, dose 10-30 mg/kg, time 7 day
# Mus musculus [23] = test: Anti-alzheimer activity against scopolamine-induced cognitive dysfunction C57BL/6 mouse model assessed as reduction in escape latency time administered intragastrically for 7 days followed by scopolamine stimulation and measured after 4 days by Morris water maze test; format: functional, organism-based; conditions: dose 10-30 mg/kg, route ig, time 11.0 day, DDE = dose-dependent effect
# Mus musculus [24] = test: Anti-alzheimer activity against scopolamine-induced cognitive dysfunction C57BL/6 mouse model assessed as improvement in cognitive impairment by measuring increase in number of platform crossing at 30 mg/kg, IG administered for 7 days followed by scopolamine stimulation and measured after 4 days by Morris water maze test; format: functional, organism-based; conditions: time 11.0 day
# Cholinesterase [25] = target: T1, Cholinesterase
# Description: Inhibition of equine serum BuChE using butyrylthiocholine iodide as substrate preincubated for 20 mins followed by substrate addition and measured after 5 mins by DTNB-reagent based Ellman's method
# cells = conditions: Mus musculus, BV-2
# Description: Inhibition of NO production in LPS-induced mouse BV-2 cells pretreated for 1 hr followed by LPS stimulation and measured after 24 hrs by ELISA
# in vitro [26] = conditions: dog, MDCK-MDR1
# Description: Apparent permeability across apical to basolateral side in MDCKII-MDR1 cells at 75 uM incubated for 2 hrs
# in vitro [27] = conditions: dog, MDCK-MDR1; remark: listed apart in the source
# Description: Apparent permeability across basolateral to apical side in MDCKII-MDR1 cells at 75 uM incubated for 2 hrs
# P-glycoprotein = test: in vitro; conditions: dog, MDCK-MDR1
# Description: Substrate activity at P-glycoprotein in MDCKII-MDR1 cells assessed as efflux ratio apparent permeability across basolateral to apical side over apical to basolateral side at 75 uM incubated for 2 hrs
structure (smiles),measurement,setting,value
O=C(CNc1ccc(F)cc1)Nc1ccc(-c2nc(-c3ccnc(Nc4ccc(OC(F)(F)F)cc4)c3)no2)cc1,IC50,Acetylcholinesterase,> 50 µM
same,inhibition,[1],Active
same,Ki,Cholinesterase [2],0.61 µM
same,viability at 5 µM,PC-12 [3],46.5%
same,viability at 20 µM,PC-12 [4],66.4%
same,"viability at 24 h, 25 µM",[5],99.7%
same,"viability at 24 h, 50 µM",[6],98.8%
same,inhibition,[7],Active
same,IC50,[8],1.61 µM
same,IC50,[9],4.15 µM
same,Activity,BV-2 [10],Dde
same,Activity,BV-2 [11],Dde
same,inhibition,[12],Dde
same,inhibition,[13],Dde
same,inhibition,[14],Active
same,inhibition,BV-2 [15],Active
same,inhibition,PC-12 [16],Active
same,inhibition,SH-SY5Y,Active
same,Activity,[17],86.1%
same,Activity,[18],34.6%
same,Activity,[19],Active
same,LD50 at 168 h,[20],75.4 mg/kg
same,Activity,[21],Non-Toxic
same,Activity,[22],Non-Toxic
same,Activity,Mus musculus [23],Dde
same,Activity,Mus musculus [24],Active
same,IC50,Cholinesterase [25],1.28 µM
same,IC50,cells,0.67 µM
same,"Papp A→B at 2 h, 75 µM",in vitro [26],17.2 ×10⁻⁶ cm/s
same,"Papp B→A at 2 h, 75 µM",in vitro [27],16.3 ×10⁻⁶ cm/s
same,"efflux ratio at 2 h, 75 µM",P-glycoprotein,0.95
